From ChEMBL document CHEMBL1938342 (J Med Chem, 2011)
Activity calls are given as the source filed them. The calls are words filed in the database; no cut-off is given here.

Key:
[1] = target: Carbonic anhydrase 2 (Homo sapiens, UniProt P00918); assay: Inhibition of human full-length cytosolic CA2 after 6 hrs by stopped flow CO2 hydration assay
[2] = target: Carbonic anhydrase 12 (Homo sapiens, UniProt O43570); assay: Inhibition of human recombinant CA12 after 6 hrs by stopped flow CO2 hydration assay
[3] = target: Carbonic anhydrase 9 (Homo sapiens, UniProt Q16790); assay: Inhibition of human recombinant CA9 after 6 hrs by stopped flow CO2 hydration assay
[4] = target: Carbonic anhydrase 1 (Homo sapiens, UniProt P00915); assay: Inhibition of human full-length cytosolic CA1 after 6 hrs by stopped flow CO2 hydration assay
[5] = system: Mus musculus; assay: Toxicity in mouse 4T1 cells expressing CA9 xenografted BALB/c mouse assessed as weight loss at 30 mg/kg, iv administered on days 11,13,16 and 19; conditions: in vivo
[6] = system: Mus musculus; assay: Toxicity in mouse 4T1 cells expressing […] xenografted BALB/c mouse assessed as mortality at 30 mg/kg, iv administered on days 11,13,16 and 19; assay type: organism-based; design: dose 30 mg/kg, route intravenous; conditions: in vivo
[7] = system: 4T1; assay: Anticancer activity against mouse 4T1 cells expressing CA9 xenografted in BALB/c mouse assessed as tumor growth inhibition at 30 mg/kg, iv administered on days 11,13,16 and 19

Sequence of Carbonic anhydrase 1 (P00915 whole entry): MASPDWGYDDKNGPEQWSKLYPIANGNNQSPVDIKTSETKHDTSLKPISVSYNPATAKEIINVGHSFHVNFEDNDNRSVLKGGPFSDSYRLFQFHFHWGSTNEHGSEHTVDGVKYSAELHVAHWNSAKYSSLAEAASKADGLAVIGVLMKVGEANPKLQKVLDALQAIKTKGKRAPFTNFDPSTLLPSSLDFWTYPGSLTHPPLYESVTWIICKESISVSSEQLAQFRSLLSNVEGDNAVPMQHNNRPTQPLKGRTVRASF
Sequence of Carbonic anhydrase 12 (O43570 whole entry): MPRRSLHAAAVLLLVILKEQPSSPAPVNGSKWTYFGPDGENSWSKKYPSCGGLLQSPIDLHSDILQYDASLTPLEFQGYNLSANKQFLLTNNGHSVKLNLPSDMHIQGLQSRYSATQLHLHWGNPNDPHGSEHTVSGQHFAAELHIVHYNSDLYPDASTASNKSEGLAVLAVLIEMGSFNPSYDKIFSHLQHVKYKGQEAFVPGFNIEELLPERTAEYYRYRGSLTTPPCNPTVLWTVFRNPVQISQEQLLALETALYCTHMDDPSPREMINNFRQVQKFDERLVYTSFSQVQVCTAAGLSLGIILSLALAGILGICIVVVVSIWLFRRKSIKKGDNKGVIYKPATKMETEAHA

Row | Structure (SMILES) | Ki [1] [nM] | Ki [2] [nM] | Ki [3] [nM] | Ki [4] [nM] | Activity [5] | Activity [6] | growth inhibition (GI) [7]
1 | Cc1cc(=O)oc2cc(O[C@@H]3O[C@@H](C)[C@H](O)[C@@H](O)[C@H]3O)ccc12 | > 100000 | 184 | 201 | > 100000 | – | – | –
2 | Cc1cc(=O)oc2cc(O)ccc12 [HYMECROMONE] | > 100000 | 8100 | 560 | > 100000 | – | – | –
3 | Cc1cc(=O)oc2cc(O[C@@H]3O[C@H](CO)[C@@H](O)[C@H](O)[C@H]3O)ccc12 | > 100000 | 54 | 370 | 1000 | – | – | –
4 | Cc1cc(=O)oc2cc(O[C@H]3O[C@H](CO)[C@@H](O)[C@H](O)[C@@H]3O)ccc12 | > 100000 | 43 | 9.2 | > 100000 | Non-toxic | Non-toxic | Active
5 | Cc1cc(=O)oc2cc(O[C@@H]3O[C@H](CO)[C@H](O)[C@H](O)[C@H]3O)ccc12 | 77000 | 8.5 | 93 | 590 | – | – | –
6 | Cc1cc(=O)oc2cc(O[C@@H]3O[C@H](CO[C@H]4O[C@H](CO)[C@H](O)[C@H](O)[C@H]4O)[C@@H](O)[C@H](O)[C@H]3O)ccc12 | 590 | 101 | 820 | 880 | – | – | –
